Laboratory results as given in ChEMBL document CHEMBL5728597, “Tetrahydroquinoline derivatives as P2X7 receptor antagonists” (2021).

Biological target: T1, P2X purinoceptor 7 (Homo sapiens, UniProt Q99572)
T1 sequence (Q99572 whole entry): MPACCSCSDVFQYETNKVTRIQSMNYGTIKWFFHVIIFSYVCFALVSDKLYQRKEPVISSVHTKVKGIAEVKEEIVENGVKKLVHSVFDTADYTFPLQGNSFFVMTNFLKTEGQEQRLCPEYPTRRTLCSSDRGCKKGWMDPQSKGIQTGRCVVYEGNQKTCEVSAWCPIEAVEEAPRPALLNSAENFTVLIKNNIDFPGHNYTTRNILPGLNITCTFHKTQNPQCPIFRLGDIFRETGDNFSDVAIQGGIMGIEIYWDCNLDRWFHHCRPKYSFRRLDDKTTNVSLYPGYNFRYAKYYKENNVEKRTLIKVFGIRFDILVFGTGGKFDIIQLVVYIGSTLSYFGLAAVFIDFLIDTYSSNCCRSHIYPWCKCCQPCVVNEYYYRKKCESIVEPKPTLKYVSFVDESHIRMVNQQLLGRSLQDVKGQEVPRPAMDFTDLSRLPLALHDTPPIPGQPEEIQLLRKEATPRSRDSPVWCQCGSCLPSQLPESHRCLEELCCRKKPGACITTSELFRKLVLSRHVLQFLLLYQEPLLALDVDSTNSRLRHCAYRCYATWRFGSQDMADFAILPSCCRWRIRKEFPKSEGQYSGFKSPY
Assay: Pharmacological Assay: 1. […] Incubate the plate at 37° C. in 5% CO2 for 1 h.4. […] Test compounds were prepared at 100× the test concentration in DMSO by serial dilution with Biomek-FX liquid handling instrument. 33× diluted compound solutions in assay buffer were prepared in intermediate compound plate with Biomek-NX liquid handling instrument. A further 3× dilution occurred in below steps 6 and 7.6. Add 20 microL of 33× diluted compound solutions into each well and leave the plate for 10 min under the dark at room temperature.7. Measure activity by FDSS as follows:Set the assay plate on the stacker of FDSS.Start the detection of fluorescence intensity at 540 nm by 480 nm exicitation.After 30 seconds, add 20 microL of assay buffer containing 240 microM BzATP (final concentration 80 microM).

| IC50 [nM] | Structure (SMILES) |
| --- | --- |
| < 50 | NC(=O)CC1CCC(C(=O)NCc2cccc(C(F)(F)F)c2Cl)c2cccnc21 (configuration not stated) |
| < 50 | O=C(NCc1ccc(C(F)(F)F)cc1Cl)[C@]1(F)CC[C@H](O)c2ncccc21 |
